The results in this text go back to publication PMC11984392, “EphA2-targeted alpha-particle theranostics for enhancing PDAC treatment” (Theranostics, 2025).

On the set-up of data set [1]: species or system C57BL/6 mice. The settings on record: mouse, in vivo. Here is the method:
Male C57BL/6 mice (5-6 weeks old) were used to establish syngeneic tumor by administering KPC cells subcutaneously in top right flank. For this study, 0.5 million cells were inoculated subcutaneously into the upper flank of each animal. Tumor growth was closely monitored, and once tumors became palpable, their volumes were measured using a vernier caliper. Animals were then randomized into groups to ensure balanced baseline tumor sizes, with median volumes of approximately 60 mm^3 (PBS group median: 60 mm^3; radiotherapeutic group median: 57 mm^3). Following randomization, two subsequent doses of 0.5 µCi of [^225Ac]AJ210 were administered intravenously with the interval of 24 h. Similarly, saline was administered in the control group. Measurements of tumor volume and body weight were conducted in alternative days until the end of study. Blood was collected retro-orbitally at 3-, 7- and 28-days post radiotherapy injection and hematological parameter were assessed using SCIL Vet ABC Plus instrument.
Tissue blocks and slides of liver, kidneys and lungs were prepared by JHU histology core and staining was also carried out by the Core. Briefly, tissue samples were fixed in formalin for 24 h and rinsed with PBS and stored in PBS. These tissue samples were dehydrated through graded ethanol series, cleared in xylene, and embedded in paraffin. Sections (4-5 µm thick) were cut using a microtome and mounted on glass slides. The slides were deparaffinized in xylene, rehydrated through graded ethanol to distilled water, and stained with hematoxylin for 5 min. After rinsing in running water, sections were differentiated in 1% acid alcohol, blued in ammonia water, and counterstained with eosin for 1-2 min. Slides were dehydrated, cleared in xylene, and mounted with a coverslip using a permanent mounting medium. Images were captured under a brightfield microscope to evaluate tissue structure and histopathological features.

Data set [2] deals with T1, human EphA2 (Homo sapiens, UniProt P29317).
T1 construct: purchased R&D systems 3035-A2
Put plainly: SPR binding affinity (Biacore T200, CM5 chip). To be noted: 25 °C, HBS-P + 0.1% DMSO, 1:1 kinetics model. Here is the method: (§1) All experiments were conducted using a Biacore T200 instrument (GE Healthcare Life Sciences) with a CM5 chip at 25 °C. His-tagged human EphA2 (R&D systems, catalog # 3035-A2, 56.9 kDa, 4.46 μM stock concentration) and mouse EphA2 (SinoBiological, cat.# 50586-M08H, 58 kDa, 8.6 μM stock concentration) were immobilized onto the CM5 chip. AJ201 (3328.8 Da, 10 mM stock concentration) and AJ210 (3072.5 Da, 10 mM stock concentration) were used as analyte to flow over the ligand immobilized surface. Flow Cell (FC) 1 was used as the reference for FC2, FC3 for FC4. Anti-His antibody (2 mg/ml stock concentration) was diluted (1:100 dilution, 0.02 mg/ml diluted concentration) in 10 mM sodium acetate buffer at pH 4.5 and immobilized on all FCs to a level of ~8000 to 11000 RU using the standard amine coupling chemistry. HBS-P (10 mM HEPES pH 7.4, 150 mM NaCl, 0.05% v/v surfactant P20) was used as the immobilization running buffer. Human EphA2 was diluted (1:5 dilution) in HBS-P captured onto FC2 to a level of ~750 RU. Mouse EphA2 was diluted (1:10 dilution) in HBS-P captured onto FC4 to a level of ~750 RU. HBS-P was used as the capture running buffer. The Rmax values assume 1:1 interaction mechanism. Overnight kinetics were performed for all analytes in the presence of HBS-P+0.1% DMSO. The flow rate of all analyte solutions was maintained at 50 μL/min. The contact and dissociation times used were 120s and 600s, respectively. Glycine solution (pH 1.5) was injected for 15 s for surface regeneration and fresh ligands were captured in the beginning of each injection cycle. Sensorgrams from the overnight kinetics was evaluated by using 1:1 kinetics model fitting.
On the technique in general: Surface plasmon resonance follows binding to a sensor surface in real time, without labels.

Data set [3] addresses T2, mouse EphA2 (Mus musculus, UniProt Q03145).
T2 construct: purchased SinoBiological 50586-M08H
As to the kind of experiment: SPR binding affinity (Biacore T200, CM5 chip). The settings on record: 25 °C, HBS-P + 0.1% DMSO, 1:1 kinetics model. Here is the method:
as §1

Data set [4] is described as follows: Ex vivo biodistribution. The arrangement: species or system NSG mice. The settings on record: both sexes, NSG, mouse, in vivo, 50 uCi, total radioactivity. As to the method:
Animal studies were performed under Johns Hopkins University Animal Care and Use Committee (ACUC)-approved protocol (Principal investigator: Sridhar Nimmagadda, Ph.D. and Protocol number M021M175). Male and Female NSG mice (5-6 weeks old) were purchased from JHU immunocompromised core and used to establish xenografts by administering cells subcutaneously (top right flank, unless otherwise noted) to form various tumor models within 3-4 weeks. Following cell numbers were used: Panc1, AsPC1, BxPC3 (1 M), Hs766T and SU8686 (2 M), CFPAC and Panc1005 (5 M). Imaging or biodistribution studies (n = 3-5) were conducted on mice with tumor volumes of 100-200 mm^3. The Panc1 orthotopic tumor model was established by surgically implanting a 3-5 mm^3 section of Panc1 tumor xenograft directly onto the pancreas. The implanted tumors were allowed to grow and were ready for imaging after 10 days of implantation.
(§2) Mice with 100-200 mm^3 tumor volume were used for ex vivo biodistribution studies. For radiotracer pharmacokinetics and dosimetry studies, mice with Panc1 tumor xenograft received ~80 µCi (2.96 MBq) [^68Ga]AJ201 and were sacrificed at pre-determined time points (5, 30, 60, 90 and 120 min). All other mice were injected with ~50 µCi (1.85 MBq; 0.2 to 0.5 nmol) Ga-68 labeled radiotracer and were sacrificed at 60 min. The selected tissues were collected, weighed, counted, and their %ID/g values calculated for biodistribution analysis. For pharmacokinetics and dosimetry studies, selected tissues included blood, muscle, tumor, thymus, heart, lung, liver, pancreas, stomach, small intestine, large intestine, spleen, adrenals, kidney, bladder, femur, brain and tumor xenografts. For other studies, selected tissues were blood, muscle, tumor, heart, lung, liver, pancreas, small intestine, spleen, kidney.

Data set [5] in a line: Ex vivo biodistribution. Format: in vivo, mice. The settings on record: mouse, in vivo, 50 uCi, total radioactivity. As to the method:
as §2

*1 amine or outer side, *2 acyl side, *3 side chain or, on linkers, in order; H or OH if unused. Where a SMILES comes first, the peptide text is derived from it. Bridges are numbered along the chain shown (N, C = ends). [ ]: non-standard residue; d: D form. The star is where a group is joined. DOTA = O=C(O)CN1CCN(CC(=O)O)CCN(CC(=O)*)CCN(CC(=O)O)CC1; TATA = O=C(CC[*:1])N1CN(C(=O)CC[*:2])CN(C(=O)CC[*:3])C1; NOTA = O=C(O)CN1CCN(CC(=O)O)CCN(CC(=O)*)CC1; Hyp = O=C(O)[C@@H]1C[C@@H](O)CN1; hArg = N=C(N)NCCCC[C@H](N)C(=O)O; PEG2 = NCCOCCOCCC(=O)O; Sar = CNCC(=O)O

T1 sequence (P29317 25-534 limits assumed): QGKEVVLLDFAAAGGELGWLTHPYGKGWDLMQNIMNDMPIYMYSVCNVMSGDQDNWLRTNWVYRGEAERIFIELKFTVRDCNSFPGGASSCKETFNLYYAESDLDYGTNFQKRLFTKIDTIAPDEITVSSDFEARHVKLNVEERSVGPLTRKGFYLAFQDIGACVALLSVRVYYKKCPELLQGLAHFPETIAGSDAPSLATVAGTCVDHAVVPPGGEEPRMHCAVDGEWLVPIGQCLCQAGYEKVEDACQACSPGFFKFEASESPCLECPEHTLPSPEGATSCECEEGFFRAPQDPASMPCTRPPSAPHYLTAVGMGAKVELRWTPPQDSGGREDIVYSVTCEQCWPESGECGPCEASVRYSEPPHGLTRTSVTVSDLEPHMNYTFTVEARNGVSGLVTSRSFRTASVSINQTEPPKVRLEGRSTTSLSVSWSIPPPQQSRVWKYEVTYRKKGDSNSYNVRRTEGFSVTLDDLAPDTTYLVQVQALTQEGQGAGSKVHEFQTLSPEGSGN
T2 sequence (Q03145 26-535 limits assumed): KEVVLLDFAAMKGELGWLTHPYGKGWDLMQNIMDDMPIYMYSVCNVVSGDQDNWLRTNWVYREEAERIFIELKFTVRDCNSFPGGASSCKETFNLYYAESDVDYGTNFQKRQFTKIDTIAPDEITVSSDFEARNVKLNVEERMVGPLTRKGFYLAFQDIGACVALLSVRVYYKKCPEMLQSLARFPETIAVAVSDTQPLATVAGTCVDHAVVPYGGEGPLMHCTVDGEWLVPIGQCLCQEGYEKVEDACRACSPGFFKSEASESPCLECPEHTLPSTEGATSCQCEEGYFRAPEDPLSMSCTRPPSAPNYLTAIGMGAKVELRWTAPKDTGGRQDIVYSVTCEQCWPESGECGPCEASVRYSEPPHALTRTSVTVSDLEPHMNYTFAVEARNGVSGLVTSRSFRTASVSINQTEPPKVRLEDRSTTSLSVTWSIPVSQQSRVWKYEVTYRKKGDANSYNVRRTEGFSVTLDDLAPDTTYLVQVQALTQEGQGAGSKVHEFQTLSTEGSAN

With `CC(C)C[C@@H]1NC(=O)[C@@H]2CSCCC(=O)N3CN(CN(C3)C(=O)CCSC[C@H](NC(=O)[C@H](CC(=O)O)NC(=O)[C@H](CCCCNC(=N)N)NC(=O)[C@H](C)NC(=O)CNC(=O)CNC(=O)CNC(=O)CNC(=O)CNC(=O)CN3CCN(CC(=O)O)CCN(CC(=O)O)CCN(CC(=O)O)CC3)C(=O)N3C[C@H](O)C[C@H]3C(=O)N[C@@H](CC(C)C)C(=O)N[C@@H](C(C)C)C(=O)N[C@@H](CC(N)=O)C(=O)N3CCC[C@H]3C(=O)N[C@@H](CC(C)C)C(=O)N2)C(=O)CCSC[C@@H](C(N)=O)NC(=O)[C@H](CCCCNC(=N)N)NC(=O)[C@H](Cc2c[nH]c3ccccc23)NC(=O)[C@@H](CC(=O)O)NC(=O)[C@@H]2CCCN2C(=O)[C@H](Cc2c[nH]cn2)NC1=O` [[^225Ac]AJ210, metal not drawn] ({DOTA}-GGGGGA[hArg]DC[Hyp]LVNPLCLHP[dD]W[hArg]C-NH2; linker 9-16-23 via TATA), in data set [1], the “H&E histology of kidney” value was “no significant pathological changes”; the “H&E histology of liver” value is listed as “no significant pathological changes”; the “H&E histology of lungs” value was “no significant pathological changes”; the “H&E staining of lung, liver and kidney sections” value was “no visible histological abnormalities”.

`CC(C)C[C@@H]1NC(=O)[C@@H]2CSCCC(=O)N3CN(CN(C3)C(=O)CCSC[C@H](NC(=O)[C@H](CC(=O)O)NC(=O)[C@H](CCCCNC(=N)N)NC(=O)[C@H](C)NC(=O)CNC(=O)CN(C)C(=O)CN(C)C(=O)CN(C)C(=O)[C@H](CCCNC(=N)N)NC(=O)CNC(=O)CCOCCOCCNC(=O)CN3CCN(CC(=O)O)CCN(CC(=O)O)CC3)C(=O)N3C[C@H](O)C[C@H]3C(=O)N[C@@H](CC(C)C)C(=O)N[C@@H](C(C)C)C(=O)N[C@@H](CC(N)=O)C(=O)N3CCC[C@H]3C(=O)N[C@@H](CC(C)C)C(=O)N2)C(=O)CCSC[C@@H](C(N)=O)NC(=O)[C@H](CCCCNC(=N)N)NC(=O)[C@H](Cc2c[nH]c3ccccc23)NC(=O)[C@@H](CC(=O)O)NC(=O)[C@@H]2CCCN2C(=O)[C@H](Cc2c[nH]cn2)NC1=O` [AJ201] ({NOTA-PEG2}-GR[Sar][Sar][Sar]GA[hArg]DC[Hyp]LVNPLCLHP[dD]W[hArg]C-NH2; linker 10-17-24 via TATA): in data set [2], the koff was 0.00133 s⁻¹ and the kon was determined as 7.6e+06 M⁻¹ s⁻¹. In addition, in data set [3], the koff came out at 0.00302 s⁻¹ and the kon amounted to 5.03e+06 M⁻¹ s⁻¹.

On to `CC(C)C[C@@H]1NC(=O)[C@@H]2CSCCC(=O)N3CN(CN(C3)C(=O)CCSC[C@H](NC(=O)[C@H](CC(=O)O)NC(=O)[C@H](CCCCNC(=N)N)NC(=O)[C@H](C)NC(=O)CNC(=O)CNC(=O)CNC(=O)CNC(=O)CNC(=O)CN3CCN(CC(=O)O)CCN(CC(=O)O)CCN(CC(=O)O)CC3)C(=O)N3C[C@H](O)C[C@H]3C(=O)N[C@@H](CC(C)C)C(=O)N[C@@H](C(C)C)C(=O)N[C@@H](CC(N)=O)C(=O)N3CCC[C@H]3C(=O)N[C@@H](CC(C)C)C(=O)N2)C(=O)CCSC[C@@H](C(N)=O)NC(=O)[C@H](CCCCNC(=N)N)NC(=O)[C@H](Cc2c[nH]c3ccccc23)NC(=O)[C@@H](CC(=O)O)NC(=O)[C@@H]2CCCN2C(=O)[C@H](Cc2c[nH]cn2)NC1=O` [[^68Ga]AJ210, metal not drawn] ({DOTA}-GGGGGA[hArg]DC[Hyp]LVNPLCLHP[dD]W[hArg]C-NH2; linker 9-16-23 via TATA), for which the tissue uptake at 1 h stood at 0.96 ± 0.33 %ID/g in data set [4] (Blood uptake); 0.38 ± 0.08 %ID/g in data set [4] (Femur uptake); 0.84 ± 0.14 %ID/g in data set [4] (Heart uptake); 24.4 ± 9.98 %ID/g in data set [4] (Kidney uptake); 0.34 ± 0.06 %ID/g in data set [4] (Liver uptake); 0.39 ± 0.08 %ID/g in data set [4] (Lung uptake). The tissue uptake at 1 h in data set [4] (Muscle uptake) was determined as 0.4 ± 0.16 %ID/g; in data set [4] (Pancreas uptake), 0.3 ± 0.08 %ID/g; in data set [4] (Small intestine uptake), 0.62 ± 0.22 %ID/g; in data set [4] (Spleen uptake), 0.74 ± 0.22 %ID/g; in data set [4] (Stomach uptake), 0.09 ± 0.03 %ID/g; in data set [4] (Tumor uptake) it was 3.72 ± 0.66 %ID/g. The tissue uptake at 1 h in data set [5] (Blood uptake) worked out at 0.56 ± 0.14 %ID/g; in data set [5] (Femur uptake), 0.29 ± 0.07 %ID/g; in data set [5] (Heart uptake) it was 0.24 ± 0.05 %ID/g; in data set [5] (Kidney uptake), 59.9 ± 16.4 %ID/g; in data set [5] (Liver uptake) it was 0.26 ± 0.05 %ID/g; in data set [5] (Lung uptake) it was 0.57 ± 0.13 %ID/g. Besides, the tissue uptake at 1 h amounted to 0.19 ± 0.04 %ID/g in data set [5] (Muscle uptake); 0.24 ± 0.06 %ID/g in data set [5] (Pancreas uptake); 0.64 ± 0.47 %ID/g in data set [5] (Small intestine uptake); 0.35 ± 0.07 %ID/g in data set [5] (Spleen uptake); 0.17 ± 0.07 %ID/g in data set [5] (Stomach uptake); 1.06 ± 0.25 %ID/g in data set [5] (Tumor uptake). Further, the tissue to tissue ratio at 1 h was determined as 10.3 ± 4.01 in data set [4] (Tumor/Muscle ratio); 13.1 ± 4.11 in data set [4] (Tumor/Pancreas ratio); 4.09 ± 0.97 in data set [4] (Tumor/blood ratio); 5.61 ± 0.69 in data set [5] (Tumor/Muscle ratio); 4.65 ± 1.46 in data set [5] (Tumor/Pancreas ratio); 1.94 ± 0.44 in data set [5] (Tumor/blood ratio).

The term koff denotes a measure of how fast the partners let go of each other. As a reminder, the kon is the rate constant with which the complex forms. Usually tissue uptake stands for the share of the injected amount in each gram of the tissue.
